Assay [1] addresses T1, CREB-binding protein (Homo sapiens, UniProt Q92793). Put plainly: Inhibition of human recombinant GST-tagged CREBBP using non acetylated ligand 1 as substrate incubated for 2 hrs by TR-FRET assay.
In assay [2] the target is T1, CREB-binding protein. Put plainly: Binding affinity to human His-tagged CREBBP expressed in Escherichia coli BL21(DE3) cells at 100 uM by SYPRO orange staining based fluorescence thermal shift assay.
Target sequence in this assay (Q92793 2-2442 limits assumed): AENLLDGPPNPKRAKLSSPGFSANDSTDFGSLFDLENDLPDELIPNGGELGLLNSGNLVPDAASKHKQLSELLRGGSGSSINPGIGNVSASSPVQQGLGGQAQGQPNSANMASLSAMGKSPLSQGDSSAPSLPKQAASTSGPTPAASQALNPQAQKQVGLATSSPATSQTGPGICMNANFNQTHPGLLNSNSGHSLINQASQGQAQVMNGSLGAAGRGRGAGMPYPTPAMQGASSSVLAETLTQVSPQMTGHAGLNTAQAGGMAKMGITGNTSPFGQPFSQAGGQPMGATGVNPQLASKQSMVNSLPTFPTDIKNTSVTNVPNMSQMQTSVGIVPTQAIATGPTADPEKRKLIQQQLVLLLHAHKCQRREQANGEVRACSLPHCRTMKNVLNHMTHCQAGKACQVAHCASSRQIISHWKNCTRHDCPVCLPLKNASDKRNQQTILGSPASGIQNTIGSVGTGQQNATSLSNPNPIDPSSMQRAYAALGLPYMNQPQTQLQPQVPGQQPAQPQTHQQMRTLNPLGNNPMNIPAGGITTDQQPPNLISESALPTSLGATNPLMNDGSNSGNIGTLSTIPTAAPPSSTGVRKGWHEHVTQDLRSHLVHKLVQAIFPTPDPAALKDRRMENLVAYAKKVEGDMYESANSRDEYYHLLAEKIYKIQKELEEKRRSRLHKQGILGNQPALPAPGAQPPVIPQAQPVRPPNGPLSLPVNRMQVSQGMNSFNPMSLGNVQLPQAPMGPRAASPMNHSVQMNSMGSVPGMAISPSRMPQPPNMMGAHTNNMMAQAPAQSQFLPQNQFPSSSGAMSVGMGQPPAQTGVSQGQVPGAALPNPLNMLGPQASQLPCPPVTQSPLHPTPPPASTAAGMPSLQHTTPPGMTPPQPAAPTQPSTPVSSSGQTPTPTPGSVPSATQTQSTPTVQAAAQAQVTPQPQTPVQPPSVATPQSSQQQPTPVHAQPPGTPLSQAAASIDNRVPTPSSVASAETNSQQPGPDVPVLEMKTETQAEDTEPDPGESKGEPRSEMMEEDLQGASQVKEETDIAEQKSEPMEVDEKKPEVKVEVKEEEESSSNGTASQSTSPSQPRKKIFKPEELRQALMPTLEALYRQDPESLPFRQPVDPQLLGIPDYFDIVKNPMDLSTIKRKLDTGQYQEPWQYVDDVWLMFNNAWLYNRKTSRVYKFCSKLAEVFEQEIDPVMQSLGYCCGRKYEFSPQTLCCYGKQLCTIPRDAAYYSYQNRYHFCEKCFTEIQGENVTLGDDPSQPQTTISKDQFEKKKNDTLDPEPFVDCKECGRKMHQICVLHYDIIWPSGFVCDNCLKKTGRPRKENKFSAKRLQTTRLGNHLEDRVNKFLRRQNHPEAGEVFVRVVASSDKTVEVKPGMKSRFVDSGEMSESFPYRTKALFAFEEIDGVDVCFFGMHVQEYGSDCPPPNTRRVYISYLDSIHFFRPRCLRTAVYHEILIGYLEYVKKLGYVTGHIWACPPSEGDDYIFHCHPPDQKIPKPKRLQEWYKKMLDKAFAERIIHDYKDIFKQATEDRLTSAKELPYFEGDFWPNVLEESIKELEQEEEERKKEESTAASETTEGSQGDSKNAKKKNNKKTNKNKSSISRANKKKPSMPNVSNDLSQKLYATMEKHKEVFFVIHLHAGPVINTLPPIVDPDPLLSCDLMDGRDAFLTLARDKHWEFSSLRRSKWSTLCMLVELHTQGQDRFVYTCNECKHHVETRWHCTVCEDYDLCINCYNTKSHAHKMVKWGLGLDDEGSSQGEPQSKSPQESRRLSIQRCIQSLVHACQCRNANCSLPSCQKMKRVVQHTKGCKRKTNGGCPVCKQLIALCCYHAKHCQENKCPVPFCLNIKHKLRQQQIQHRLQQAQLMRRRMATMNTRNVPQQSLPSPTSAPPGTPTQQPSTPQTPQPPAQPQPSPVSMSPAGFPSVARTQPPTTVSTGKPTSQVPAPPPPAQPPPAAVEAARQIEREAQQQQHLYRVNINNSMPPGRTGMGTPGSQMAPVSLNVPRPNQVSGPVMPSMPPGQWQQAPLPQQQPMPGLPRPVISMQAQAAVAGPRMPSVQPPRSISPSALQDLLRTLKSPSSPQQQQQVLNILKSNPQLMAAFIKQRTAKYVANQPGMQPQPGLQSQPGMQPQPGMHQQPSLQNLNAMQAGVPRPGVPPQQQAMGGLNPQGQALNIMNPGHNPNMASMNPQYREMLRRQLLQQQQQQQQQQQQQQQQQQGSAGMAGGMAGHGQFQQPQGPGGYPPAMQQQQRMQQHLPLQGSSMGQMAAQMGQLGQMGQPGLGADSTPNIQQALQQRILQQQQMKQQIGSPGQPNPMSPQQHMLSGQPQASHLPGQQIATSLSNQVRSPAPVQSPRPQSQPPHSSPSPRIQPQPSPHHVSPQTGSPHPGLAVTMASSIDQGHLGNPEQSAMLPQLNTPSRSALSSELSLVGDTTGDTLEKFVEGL
Assay [3] is described as follows: (§1) Cytotoxicity against human MOLM13 cells assessed as assessed as growth inhibition after 48 hrs by resazurin assay. Format: functional. As to conditions: MOLM-13, 48 h. For orientation: Resazurin is reduced to fluorescent resorufin, in cell work by metabolically active cells.
Assay [4] has as its target Histone acetyltransferase p300 (Homo sapiens) (UniProt Q09472). Kind of assay: Binding affinity to EP300 (unknown origin) at 100 uM by SYPRO orange staining based fluorescence thermal shift assay.
Assay [5] can be described thus: (§2) Cytotoxicity against human ML2 cells assessed as growth inhibition after 48 hrs by resazurin assay. The assay is classed as functional. As to conditions: ML-2, 48 h.
The target in assay [6] is T1, CREB-binding protein. Kind of assay: Competitive binding affinity to human His-tagged CREBBP expressed in T7 phage-infected Escherichia coli BL21(DE3) cells incubated for 1 hr by bromoscan assay.
For another assay, the system named is HL-60. Kind of assay: Cytotoxicity against human HL60 cells assessed as assessed as growth inhibition after 48 hrs by resazurin assay. The assay is classed as functional, cell-based.
Assay [7] has as its target T2, Bromodomain-containing protein 4 (Homo sapiens, UniProt O60885). Kind of assay: Binding affinity to human BRD4 bromodomain 1 expressed in Escherichia coli BL21(DE3) cells at 100 uM by SYPRO orange staining based fluorescence thermal shift assay.
For a further assay, the system named is MOLM-13. Described as §1. Format: functional.
Another assay deals with ML-2. The assay is described as §2. Format: functional.
The target of assay [8] is Histone acetyltransferase p300 (Homo sapiens) (UniProt Q09472). Put plainly: Binding affinity to EP300 (unknown origin) at 50 uM by SYPRO orange staining based fluorescence thermal shift assay.
Histone acetyltransferase p300 (Homo sapiens), sequence (Q09472 whole entry): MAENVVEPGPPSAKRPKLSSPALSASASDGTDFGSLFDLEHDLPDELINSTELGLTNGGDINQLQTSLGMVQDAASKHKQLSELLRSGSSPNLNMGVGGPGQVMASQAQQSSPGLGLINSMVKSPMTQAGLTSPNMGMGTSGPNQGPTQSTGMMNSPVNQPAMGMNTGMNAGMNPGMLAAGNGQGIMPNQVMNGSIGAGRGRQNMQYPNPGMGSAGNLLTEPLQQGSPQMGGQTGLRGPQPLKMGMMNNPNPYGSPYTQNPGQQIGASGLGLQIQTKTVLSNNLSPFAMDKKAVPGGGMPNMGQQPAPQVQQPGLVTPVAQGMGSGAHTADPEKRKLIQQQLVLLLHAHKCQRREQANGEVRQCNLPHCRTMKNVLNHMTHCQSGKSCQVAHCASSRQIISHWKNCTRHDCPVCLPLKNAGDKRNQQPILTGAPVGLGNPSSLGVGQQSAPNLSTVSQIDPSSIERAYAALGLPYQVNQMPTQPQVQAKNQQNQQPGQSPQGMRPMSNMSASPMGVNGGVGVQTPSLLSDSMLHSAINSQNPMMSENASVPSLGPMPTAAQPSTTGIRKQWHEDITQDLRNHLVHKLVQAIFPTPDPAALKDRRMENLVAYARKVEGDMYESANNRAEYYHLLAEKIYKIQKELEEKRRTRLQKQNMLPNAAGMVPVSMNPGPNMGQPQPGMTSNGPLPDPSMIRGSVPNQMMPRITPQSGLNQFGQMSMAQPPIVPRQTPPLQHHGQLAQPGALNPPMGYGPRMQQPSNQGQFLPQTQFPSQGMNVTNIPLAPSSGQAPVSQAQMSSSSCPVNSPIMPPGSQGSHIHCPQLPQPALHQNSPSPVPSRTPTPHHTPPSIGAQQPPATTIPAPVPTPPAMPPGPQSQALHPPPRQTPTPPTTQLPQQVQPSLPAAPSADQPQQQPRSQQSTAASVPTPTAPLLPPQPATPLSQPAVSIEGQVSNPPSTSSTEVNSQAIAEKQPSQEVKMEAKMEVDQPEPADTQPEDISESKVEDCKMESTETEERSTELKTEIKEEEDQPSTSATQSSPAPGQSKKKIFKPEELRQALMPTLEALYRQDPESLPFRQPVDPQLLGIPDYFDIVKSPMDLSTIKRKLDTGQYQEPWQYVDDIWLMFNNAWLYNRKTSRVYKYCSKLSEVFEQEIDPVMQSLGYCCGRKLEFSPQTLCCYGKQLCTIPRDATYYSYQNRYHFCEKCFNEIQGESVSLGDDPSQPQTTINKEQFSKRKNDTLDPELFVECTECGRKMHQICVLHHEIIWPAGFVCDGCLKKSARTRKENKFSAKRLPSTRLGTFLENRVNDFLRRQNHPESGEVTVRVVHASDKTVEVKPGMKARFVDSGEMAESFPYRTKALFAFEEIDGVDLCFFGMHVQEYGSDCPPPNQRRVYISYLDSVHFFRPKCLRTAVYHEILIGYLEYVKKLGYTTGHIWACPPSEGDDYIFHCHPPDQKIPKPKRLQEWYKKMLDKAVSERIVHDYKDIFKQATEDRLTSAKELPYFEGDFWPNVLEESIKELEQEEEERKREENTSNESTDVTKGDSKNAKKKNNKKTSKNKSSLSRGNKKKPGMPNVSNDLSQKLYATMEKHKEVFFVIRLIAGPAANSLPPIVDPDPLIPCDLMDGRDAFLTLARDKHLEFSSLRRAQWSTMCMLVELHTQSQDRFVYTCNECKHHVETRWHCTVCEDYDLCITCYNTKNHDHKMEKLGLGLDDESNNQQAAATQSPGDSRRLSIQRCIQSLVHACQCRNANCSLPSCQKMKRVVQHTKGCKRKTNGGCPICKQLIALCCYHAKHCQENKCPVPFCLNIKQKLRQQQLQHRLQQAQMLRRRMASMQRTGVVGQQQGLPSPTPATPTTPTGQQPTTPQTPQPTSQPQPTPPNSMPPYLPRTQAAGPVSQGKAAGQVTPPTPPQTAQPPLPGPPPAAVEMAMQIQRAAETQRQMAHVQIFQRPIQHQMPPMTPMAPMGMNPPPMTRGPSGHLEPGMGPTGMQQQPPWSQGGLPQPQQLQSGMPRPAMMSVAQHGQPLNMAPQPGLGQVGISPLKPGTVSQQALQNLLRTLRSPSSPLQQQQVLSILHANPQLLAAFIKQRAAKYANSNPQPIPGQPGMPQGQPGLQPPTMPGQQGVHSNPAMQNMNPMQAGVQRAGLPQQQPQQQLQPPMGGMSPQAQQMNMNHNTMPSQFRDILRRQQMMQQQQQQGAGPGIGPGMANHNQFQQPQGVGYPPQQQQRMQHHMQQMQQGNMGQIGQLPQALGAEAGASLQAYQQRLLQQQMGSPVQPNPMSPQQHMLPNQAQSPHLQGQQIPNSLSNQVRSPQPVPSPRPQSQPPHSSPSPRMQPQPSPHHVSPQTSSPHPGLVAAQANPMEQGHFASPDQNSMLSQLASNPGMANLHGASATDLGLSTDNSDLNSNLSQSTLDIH
For assay [9], the target named is T1, CREB-binding protein. Kind of assay: Binding affinity to human His-tagged CREBBP expressed in Escherichia coli BL21(DE3) cells at 50 uM by SYPRO orange staining based fluorescence thermal shift assay.
Target sequence in this assay (Q92793 2-2442 limits assumed): as the sequence (Q92793 2-2442 limits assumed) above
Assay [10] has as its target T1, CREB-binding protein. Put plainly: Competitive binding affinity to human His-tagged CREBBP expressed in T7 phage-infected Escherichia coli BL21(DE3) cells at 25 uM incubated for 1 hr by bromoscan assay relative to control.
Target sequence in this assay (Q92793 2-2442 limits assumed): as above
Assay [11] addresses T3, Bromodomain-containing protein 2 (Homo sapiens, UniProt P25440). Put plainly: Competitive binding affinity to human BRD2 bromodomain 1 expressed in T7 phage-infected Escherichia coli BL21(DE3) cells incubated for 1 hr by bromoscan assay.
Assay [12] deals with T2, Bromodomain-containing protein 4. Put plainly: Competitive binding affinity to human BRD4 bromodomain 2 expressed in T7 phage-infected Escherichia coli BL21(DE3) cells incubated for 1 hr by bromoscan assay.
The target in assay [13] is T1, CREB-binding protein. Put plainly: Binding affinity to human His-tagged CREBBP expressed in Escherichia coli BL21(DE3) cells by isothermal titration calorimetry.
Assay [14] addresses T2, Bromodomain-containing protein 4. Put plainly: Competitive binding affinity to human BRD4 bromodomain 1 expressed in T7 phage-infected Escherichia coli BL21(DE3) cells incubated for 1 hr by bromoscan assay.
In assay [15] the target is T3, Bromodomain-containing protein 2. Kind of assay: Competitive binding affinity to human BRD2 bromodomain 2 expressed in T7 phage-infected Escherichia coli BL21(DE3) cells incubated for 1 hr by bromoscan assay.
For assay [16], the target named is T1, CREB-binding protein. Put plainly: Competitive binding affinity to human His-tagged CREBBP expressed in T7 phage-infected Escherichia coli BL21(DE3) cells at 50 uM incubated for 1 hr by bromoscan assay relative to control.
Target sequence in this assay (Q92793 2-2442 limits assumed): as above

Results on 28 compounds are retold here after ChEMBL document CHEMBL3769355, “Fragment-Based Design of Selective Nanomolar Ligands of the CREBBP Bromodomain” (J Med Chem, 2016).

Active and inactive are the calls of the source. No cut-off for these calls is given here.

In the case of `CCOc1ccc(C(C)=O)cc1NC(=O)c1cc(COC2CCCCO2)cc(C(=O)O)c1` (stereo unspecified), the IC50 (in general, the concentration that gives 50% inhibition) at CREB-binding protein [1] was 1 µM. Further, the ΔTm (usually the shift of the melting midpoint relative to a reference) stood at 6 °C at CREB-binding protein [2], 5.9 °C in [4] and 1.7 °C in assay [7]. Also, the GI50 (as a rule, the concentration giving 50% growth inhibition) came out at 5.3 µM in assay [3] and 14.4 µM in assay [5]. Further, the Kd (commonly the equilibrium constant for the complex coming apart) on CREB-binding protein [6] was 0.37 µM. Further, in the assay on HL-60, the “growth inhibition (GI)” value is “Active”.

`CC(=O)c1ccc(OCc2ccccc2)c(NC(=O)c2cccc(C(=O)O)c2)c1`: the ΔTm came to 3.3 °C on CREB-binding protein [2] and 2.6 °C in assay [4].

Take `CCCOc1ccc(C(C)=O)cc1NC(=O)c1cccc(C(=O)O)c1`: the IC50 at CREB-binding protein [1] amounted to 7.4 µM. In addition, the ΔTm was 3.8 °C at CREB-binding protein [2] and 3.4 °C in assay [4]. The “growth inhibition (GI)” value with MOLM-13, with ML-2 and in the assay on HL-60 was “Active” each time.

As for `CC(=O)c1ccc(OCC2CC2)c(NC(=O)c2cccc(C(=O)O)c2)c1`, the figures for the thermal shift (ΔTm) (at CREB-binding protein [2]; in assay [4]) were 3.4 °C and 3.6 °C, respectively. Besides, the “growth inhibition (GI)” value in the assay with MOLM-13, in the assay on ML-2 and in the assay on HL-60 was “Active” in each case.

As for `CCOc1ccc(C(C)=O)cc1NC(=O)c1cc(C(=O)O)cc(-c2ccncc2)c1`, the IC50 at CREB-binding protein [1] stood at 3 µM. The ΔTm is 3.9 °C in assay [8] and 4.1 °C on CREB-binding protein [9].

Consider `CC(=O)c1cccc(NC(=O)c2c(-n3cnnn3)sc(C)c2C)c1`, for which the dissociation constant Kd at CREB-binding protein [6] turned out to be 29 µM. Also, the Activity on CREB-binding protein [10] worked out at 2%.

Consider `CCOc1ccc(C(C)=O)cc1NC(=O)c1ccccc1C(=O)O`, for which the IC50 at CREB-binding protein [1] is 64 µM. The ΔTm on CREB-binding protein [2] worked out at 1.9 °C.

Take `CCOc1ccc(C(C)=O)cc1NC(=O)c1cccc(-n2cnnn2)c1`: the IC50 at CREB-binding protein [1] came to 7.5 µM. Further, the ΔTm on CREB-binding protein [2] is 3.3 °C; in [4] it was 2.6 °C.

In the case of `CC(=O)c1ccc(C)c(NC(=O)/C=C/C(=O)O)c1`, at CREB-binding protein [1], the IC50 was over 100 µM. In addition, at CREB-binding protein [2], the ΔTm stood at 0.2 °C.

For the compound `CC(=O)c1ccc(N2CCOCC2)c(NC(=O)c2cccc(C(=O)O)c2)c1`, the ΔTm came to 1.4 °C at CREB-binding protein [2] and 1.3 °C in [4].

In the case of `CC(=O)c1cccc(NC(=O)Cn2c(=O)c3ccccc3n3nc(C)cc23)c1`, the Activity on CREB-binding protein [10] amounted to 22%.

Regarding `CC(=O)c1ccc(OCC(C)C)c(NC(=O)c2cccc(C(=O)O)c2)c1`, the ΔTm on CREB-binding protein [2] worked out at 3.5 °C; in assay [4], 3 °C. Moreover, the “growth inhibition (GI)” value in the assay on MOLM-13, in the assay on ML-2 and in the assay on HL-60 was “Active” each time.

On to `CCOc1ccc(C(C)=O)cc1NC(=O)c1cc(COC)cc(C(=O)O)c1`, for which, on CREB-binding protein [1], the IC50 was found to be 2 µM. Also, the results for the ΔTm (on CREB-binding protein [2]; in assay [4]; in assay [7]) were 5.1 °C, 4.6 °C and 1.3 °C, respectively. The “growth inhibition (GI)” value in the assay with MOLM-13, in the assay with ML-2 and in the assay with HL-60 was “Active” throughout. Further, the Kd is over 50 µM in assay [11]; over 50 µM in assay [12]; 0.8 µM on CREB-binding protein [13]; 0.53 µM on CREB-binding protein [6]; 25 µM in [14]; over 50 µM in assay [15].

As for `CCOc1ccc(C(C)=O)cc1NC(=O)C1CC1C(=O)O` (stereo unspecified), the IC50 on CREB-binding protein [1] is over 100 µM. The ΔTm on CREB-binding protein [2] turned out to be 1.1 °C.

As for `CC(=O)c1cccc(NC(=O)/C=C/C(=O)O)c1`, the IC50 at CREB-binding protein [1] was 30 µM. At CREB-binding protein [2], the ΔTm came to 0.1 °C.

Take `CCOc1ccc(C(C)=O)cc1NC(=O)c1cccc(C(=O)OC)c1`: the IC50 at CREB-binding protein [1] came to 5 µM. For the same compound, the shift in melting temperature (ΔTm) at CREB-binding protein [2] came to 2.8 °C. At CREB-binding protein [6], this compound displayed a dissociation constant (Kd) of 0.49 µM.

Regarding `CCOc1ccc(C(C)=O)cc1NC(=O)c1cccc(C(=O)O)c1`, the IC50 at CREB-binding protein [1] amounted to 8.7 µM. Moreover, the ΔTm on CREB-binding protein [2] is 3.8 °C; in assay [4], 3.4 °C; in assay [7], 0.4 °C. Moreover, the “growth inhibition (GI)” value with MOLM-13, with ML-2 and with HL-60 was “Active” each time. For the same compound, the dissociation constant Kd was over 50 µM in assay [11]; over 50 µM in assay [12]; 2 µM on CREB-binding protein [13]; 0.67 µM on CREB-binding protein [6]; over 50 µM in assay [14]; over 50 µM in assay [15].

For the compound `CCOc1ccc(C(C)=O)cc1NC(=O)c1cccc(NS(=O)(=O)c2ccccc2)c1`, the results for the ΔTm (at CREB-binding protein [2]; in [4]) were 0.5 °C and 0.4 °C, respectively.

In the case of `CCOc1ccc(C(C)=O)cc1NC(=O)/C=C/C(=O)O`, the ΔTm at CREB-binding protein [2] amounted to 1.8 °C. The compound also came in with an Activity on CREB-binding protein [16] of 2.5%. The compound further returned a Kd on CREB-binding protein [6] of 4.7 µM.

As for `CC(=O)c1ccc(C2CC2)c(NC(=O)c2cccc(C(=O)O)c2)c1`, on CREB-binding protein [1], the IC50 was found to be 15 µM. The thermal shift (ΔTm) (at CREB-binding protein [2]; in assay [4]) was 3.1 °C in each case.

For `CCOc1ccc(C(C)=O)cc1NC(=O)c1cccc(S(=O)(=O)Nc2ccccc2)c1`, the half-maximal inhibitory concentration (IC50) on CREB-binding protein [1] is over 10 µM. In addition, the ΔTm (on CREB-binding protein [2]; in [4]) was 0 °C in each case.

Turning to `CCOc1ccc(C(C)=O)cc1C(=O)Nc1cccc(C(=O)O)c1`, the ΔTm on CREB-binding protein [2] came out at 3.4 °C. Also, the “growth inhibition (GI)” value with MOLM-13, in the assay with ML-2 and in the assay with HL-60 was “Active” in each case. At CREB-binding protein [6], this compound yielded a Kd of 2.5 µM.

For the compound `CCOc1ccc(C(=O)NC)cc1NC(=O)c1cccc(C(=O)O)c1`, the ΔTm at CREB-binding protein [2] was determined as 1.1 °C. Further, binding at CREB-binding protein [6] was put at a Kd of 37 µM.

`CCOc1ccc(C(C)=O)cc1NC(=O)c1cc(CO)cc(C(=O)O)c1`: the IC50 on CREB-binding protein [1] amounted to 3 µM. In addition, the ΔTm on CREB-binding protein [2] came out at 3.8 °C; in assay [4], 3.7 °C. Besides, the “growth inhibition (GI)” value in the assay with MOLM-13, with ML-2 and with HL-60 was “Active” throughout.

`CC(=O)c1cccc(NC(=O)N2C[C@@H](C)O[C@@H](c3ccccc3)C2)c1` returned an Activity on CREB-binding protein [16] of 9.4%.

`CC(=O)c1ccc(F)c(NC(=O)/C=C/C(=O)O)c1`: the IC50 on CREB-binding protein [1] was over 100 µM. For the same compound, the ΔTm at CREB-binding protein [2] was -0.1 °C.

In the case of `COc1ccc(C(C)=O)cc1NC(=O)/C=C/C(=O)O`, the IC50 on CREB-binding protein [1] was 60 µM. The ΔTm at CREB-binding protein [2] stood at 1.1 °C.

Regarding `CCOc1ccc(C(C)=O)cc1NC(=O)c1cc(C(=O)O)cc(-c2ccoc2)c1`, the concentration for half-maximal inhibition (IC50) at CREB-binding protein [1] turned out to be 1 µM. For the same compound, the values for the ΔTm (on CREB-binding protein [2]; in assay [4]; in [7]) were 5.2 °C, 5.9 °C and 1.5 °C, respectively. Also, the “growth inhibition (GI)” value in the assay with MOLM-13, in the assay on ML-2 and in the assay with HL-60 was “Active” in each case. Further, the equilibrium dissociation constant (Kd) is 24 µM in [11]; over 36 µM in assay [12]; 0.3 µM at CREB-binding protein [13]; 0.17 µM at CREB-binding protein [6]; 9.8 µM in [14]; 24 µM in assay [15].
